Columns and labels:
[1] = 400-600 mg/kg per day for 60 days; cited from earlier work
mouse = experiment: Mouse studies: open field, balance beam, functional observational battery, treadmill; format: in vivo; settings: open field observations, treadmill analysis
[2] = acute animal toxicity; cited from earlier work
neonatal rat DRG cells = experiment: CisPt effect on cell viability with or without protectant; format: cell-based; settings: co-administration with CisPt, FIG. 3A
Text: (§1) The enol compounds investigated in this study were gavinol, NAHA, and THA and as a point of comparison, the protective properties of thiol-based compounds, N-acetyl-L-cysteine (NAC) and sodium thiosulfate (STS), were also investigated.

[3] = tested on: freshly isolated mouse hepatocytes; experiment: as above; format: cell-based; settings: co-administration with CisPt, FIG. 3B
Text: as §1

osteosarcoma (HOS) = experiment: CisPt-induced cancer cell lethality; format: cell-based; settings: for effect on ability of CisPt to kill cancer cells (IC75): co-incubated with graded CisPt, FIG. 5C
DRG cells = experiment: Lethality of pre-formed enol-Pt complexes and Pt drugs; settings: 4 hours exposure
Procedure: (§2) DRG cells and isolated mouse hepatocytes were then exposed to enol-Pt complexes for 4 hours and the respective changes in lethality were determined.

[4] = tested on: isolated mouse hepatocytes; experiment: as above; settings: 4 hours exposure
Procedure: as §2

neuroblastoma (SH-SY5) = experiment: CisPt-induced cancer cell lethality; format: cell-based
glioblastoma (U87 MG) = experiment: CisPt-induced cancer cell lethality; format: cell-based
[5] = pKa of nucleophilic carbon atoms; format: physicochemical
[6] = complexes pre-incubated 30 mins

Compound | toxicity in mouse studies (mouse) | protection against CisPt toxicity (neonatal rat DRG cells) | protection against CisPt toxicity [3] | effect on ability of CisPt to kill cancer cells (IC75) (osteosarcoma (HOS)) | further results
CC(=O)C1CCCC1=O (centres unmarked) [2-ACP, 2-acetylcyclopentanone] | not toxic |  |  |  | systemic toxicity [1]: low incidence of systemic toxicity; LD50 [2]: > 800 mg/kg
CC(=O)c1c(O)cc(NC(=O)C2CCCC2=O)cc1O (centres unmarked) [gavinol, N-(4-acetyl-3,5-dihydroxyphenyl)-2-oxocyclopentane-1-carboxamide] | not toxic | substantial cryoprotection | substantial cryoprotection | significantly lowered the respective IC75S | 
CC(=O)c1c(O)cc(O)cc1O [THA, 2′,4′,6′-trihydroxyacetophenone] | not toxic | substantial cryoprotection | substantial cryoprotection |  | 
N.N.O=C([O-])C1(C(=O)[O-])CCC1.[Pt+2] [CarboPt, carboplatin] |  |  |  |  | cytotoxicity relative to that caused by CisPt or OxaliPt (DRG cells): intermediate cytotoxicity; cytotoxicity (lethality) (DRG cells; [6]): substantial concentration-dependent DRG and hepatocyte lethality; cytotoxicity relative to that caused by CisPt or OxaliPt [4]: intermediate cytotoxicity; cytotoxicity (lethality) [4, 6]: substantial concentration-dependent DRG and hepatocyte lethality; cancer cell lethality (osteosarcoma (HOS); FIG. 6B, compared with CisPt): reduced cancer cell lethality; cancer cell lethality (neuroblastoma (SH-SY5); FIG. 6C, compared with CisPt): reduced cancer cell lethality; cancer cell lethality (glioblastoma (U87 MG); FIG. 6A, compared with CisPt): reduced cancer cell lethality
CC(=O)Nc1cc(O)c(C(C)=O)c(O)c1 [NAHA, 4-N-acetyl-2,6-dihydroxyacetaphenone] | not toxic | substantial cryoprotection | substantial cryoprotection | significantly lowered the respective IC75S | pKa [5]: 7.9
O=S([O-])([O-])=S.[Na+].[Na+] [STS, sodium thiosulfate, reference compound] |  | only modest protection | only modest protection | did not modify CisPt-induced cancer cell toxicity | effect on ability of CisPt to kill cancer cells (IC75) (neuroblastoma (SH-SY5); co-incubated with graded CisPt, FIG. 5A): did not modify CisPt-induced cancer cell toxicity; effect on ability of CisPt to kill cancer cells (IC75) (glioblastoma (U87 MG); co-incubated with graded CisPt, FIG. 5B): did not modify CisPt-induced cancer cell toxicity
CC(=O)N[C@@H](CS)C(=O)O [NAC, N-acetyl-L-cysteine, reference compound] |  | only modest protection | only modest protection |  | 

— US12569454B2, “Nucleophilic chemicals useful in the treatment of cisplatin-induced sensory neuropathy and ototoxicity” (MONTEFIORE MEDICAL CENTER, priority 2018, dated 2026)
